≈ marks a conversion by molar mass, not a printed value. Each block holds one compound with its values, some of them ahead of it.
Tests used:
MCF7 [1] = test: Antiproliferative activity against human MCF7 cells assessed as reduction in cell viability incubated for 72 hrs by MTT assay; format: functional, cell-based; conditions: MCF7, 72 h
MCF7 [2] = test: Cytotoxicity against human MCF7 cells assessed as inhibition of cell growth measured after 24 hrs by MTT assay; format: functional, cell-based; conditions: MCF7, 24 h
HepG2 [3] = test: Antiproliferative activity against human HepG2 cells assessed as reduction in cell viability; format: functional, cell-based
Hep 3B2 = test: Antiproliferative activity against human Hep3B cells assessed as inhibition of cell viability after 72 hrs by CCK-8 assay; format: functional, cell-based
A2780 = test: Antiproliferative activity against human A2780 cells assessed as reduction in cell viability incubated for 48 hrs by MTT assay; format: functional, cell-based; conditions: A2780, 48 h
OVCAR-3 = test: Antiproliferative activity against human OVCAR-3 cells assessed as cell viability measured after 72 hrs incubation by MTT assay; format: functional, cell-based; conditions: OVCAR-3, 72 h
MCF7-DOX = test: Antiproliferative activity against human MCF7-DOX cells assessed as reduction in cell viability by MTT assay; format: functional, cell-based
HepG2 [4] = test: Antiproliferative activity against human HepG2 cells assessed as reduction in cell viability by MTT assay; format: functional, cell-based
A549 [5] = test: Antiproliferative activity against human A549 cells assessed as reduction in cell viability by MTT assay; format: functional, cell-based
HeLa [6] = test: Antiproliferative activity against human HeLa cells assessed as reduction in cell viability by MTT assay; format: functional, cell-based
DU-145 [7] = test: Antiproliferative activity against human DU-145 cells assessed as reduction in cell viability by MTT assay; format: functional, cell-based
SK-OV-3 = test: Antiproliferative activity against human SK-OV-3 cells assessed as reduction in cell viability by MTT assay; format: functional, cell-based
SW480 = test: Cytotoxicity against human SW480 cells assessed as reduction in cell viability incubated for 48 hrs by MTT; format: functional, cell-based; conditions: SW480, 48 h
MCF7 [8] = test: cells; conditions: Homo sapiens, MCF7, 24 h
Description: Cytotoxicity against human MCF7 cells assessed as reduction in cell viability incubated for 24 hrs by MTT assay

K562 [9] = test: Cytotoxicity against human K562 cells assessed as reduction in cell viability incubated for 72 hrs by MTT assay; format: functional, cell-based; conditions: K562, 72 h
T47D = test: Anticancer activity against human T47D cells assessed as cell growth inhibition; format: functional, cell-based
MCF7 [10] = test: Growth inhibition of human MCF7 cells incubated for 48 hrs by SRB assay; format: functional
A549 [11] = test: Cytotoxicity against human A549 cells assessed as reduction in cell growth incubated for 48 hrs by MTT assay; format: functional, cell-based; conditions: A549, 48 h
MCF7 [12] = test: Cytotoxicity against human MCF7 cells assessed as reduction in cell growth incubated for 48 hrs by MTT assay; format: functional, cell-based; conditions: MCF7, 48 h
HepG2 [13] = test: Cytotoxicity against human HepG2 cells assessed as cell growth inhibition measured after 48 hrs by MTT assay; format: functional, cell-based; conditions: HepG2, 48 h
HeLa [14] = test: Anticancer activity against human HeLa cells assessed as cell growth inhibition; format: functional
MCF7 [15] = test: Antiproliferative activity against human MCF7 cells assessed as reduction in cell viability measured after 24 hrs by MTT assay; format: functional, cell-based; conditions: MCF7, 24 h
MCF7 [16] = test: Cytotoxicity against human MCF7 cells assessed as cell growth inhibition measured after 48 hrs by MTT assay; format: functional, cell-based; conditions: MCF7, 48 h
DU-145 [17] = test: Anticancer activity against human DU-145 cells assessed as cell growth inhibition; format: functional, cell-based
[18] = Anticancer activity against human SK-MEL-128 cells assessed as cell growth inhibition; format: functional, cell-based
MDA-MB-231 [19] = test: Antiproliferative activity against human MDA-MB-231 cells assessed as reduction in cell viability measured after 72 hrs under hypoxia condition by MTT assay; format: functional, cell-based; conditions: MDA-MB-231, 72 h
MDA-MB-231 [20] = test: Antiproliferative activity against human MDA-MB-231 cells assessed as reduction in cell viability measured after 72 hrs under normoxia condition by MTT assay; conditions: MDA-MB-231, 72 h
MCF7 [21] = test: Cytotoxicity against human MCF7 cells assessed as reduction in cell growth incubated for 5 days by MTT assay; format: functional, cell-based; conditions: MCF7, 120 h
HOS = test: Cytotoxicity against human HOS cells assessed as reduction in cell growth incubated for 5 days by MTT assay; format: functional, cell-based; conditions: 120 h
A549 [22] = test: Antiproliferative activity against human A549 cells assessed as reduction in cell viability by MTS assay; format: functional, cell-based
MCF7 [23] = test: Antiproliferative activity against human MCF7 cells assessed as reduction in cell viability by MTT assay; format: functional, cell-based
K562 [24] = test: Cytotoxicity against human K562 cells assessed as reduction in cell growth by MTT assay; format: functional, cell-based

IC50 (MCF7 [1]): 9.62 µg/mL (≈ 22.4 µM)
Compound: Cc1cc(=O)oc2cc(OCC(=O)Nc3ccc(C(=O)/C=C/c4ccco4)cc3)ccc12

Compound: COc1ccc(-c2cc(-c3cc4ccccc4oc3=O)nc3nc(C)[nH]c(=O)c23)cc1
IC50 (MCF7 [2]): 1.1 µM

Compound: CCN(CC)c1ccc2cc(C(=O)N3CCN(CCC[C@H]4O[C@@H]5O[C@@]6(C)CC[C@H]7[C@H](C)CC[C@@H]([C@H]4C)[C@@]57OO6)CC3)c(=O)oc2c1
IC50 (HepG2 [3]): 3.05 µM
IC50 (Hep 3B2): 3.76 µM
IC50 (A2780): 5.82 µM
IC50 (OVCAR-3): 4.6 µM

IC50 (MCF7-DOX): 15.5 µM
IC50 (HepG2 [4]): 19.9 µM
IC50 (A549 [5]): 18.7 µM
IC50 (HeLa [6]): 21.3 µM
IC50 (DU-145 [7]): 31.5 µM
IC50 (SK-OV-3): 18 µM
Compound: Cc1ccc2c(c1)/C(=N\O)C(=O)N2CCOCCn1cc(COc2ccc3c(C)cc(=O)oc3c2)nn1

Compound: COc1cc(/C=C/c2ccc3ccc(=O)oc3c2)cc(OC)c1O
IC50 (SW480): 1.01 µM

IC50 (MCF7 [8]): 11.2 µM
Compound: C/C(=N\Nc1nc(C)c(/N=N/c2ccc(C)cc2)s1)c1cc2cc(/N=N/c3ccccc3)ccc2oc1=O

Compound: COc1cccc(-c2cn(Cc3cc(=O)oc4cc(O)c(O)cc34)nn2)c1
IC50 (K562 [9]): 17.9 µM

IC50 (T47D): 2.32 µM
GI50 (MCF7 [10]): < 10 µg/mL
Compound: O=C(/C=C/c1ccc(OCCN2CCCCC2)cc1)c1cc2ccccc2oc1=O

IC50 (T47D): 2.32 µM
GI50 (MCF7 [10]): 32.5 µg/mL (≈ 75 µM)
Compound: COc1cc(/C=C/C(=O)c2cc3ccccc3oc2=O)ccc1OCCN1CCCCC1

Compound: COc1ccc(-c2cc(-c3cc4ccccc4oc3=O)nc(N)c2C(N)=O)cc1
IC50 (MCF7 [2]): 1.1 µM

Compound: O=C(CNCc1cccnc1)Nc1cc2ccccc2oc1=O
IC50 (A549 [11]): 69.1 µM
IC50 (MCF7 [12]): 69.1 µM

Compound: Cc1cc(-c2cc3ccccc3oc2=O)n(-c2nc(-c3ccc(Cl)cc3)cs2)n1
IC50 (HepG2 [13]): 3.74 µM

GI50 (HeLa [14]): 36.2 µg/mL (≈ 84.1 µM)
Compound: Cc1ccc(S(=O)(=O)n2c(-c3cc(=O)oc4ccc(C)cc34)nc3ccccc32)cc1

IC50 (MCF7 [15]): 58.6 µM
Compound: Cc1cc(OCc2cn(C3C(=O)N(c4cccc(Cl)c4)C3/C=C\c3ccccc3)nn2)cc2oc(=O)cc(C)c12 (stereo unspecified)

GI50 (HeLa [14]): 35.3 µg/mL (≈ 79.1 µM)
Compound: COc1ccc2oc(=O)cc(-c3nc4ccccc4n3S(=O)(=O)c3ccc(C)cc3)c2c1

Compound: Cc1cc(-c2cc3cc(Cl)ccc3oc2=O)n(-c2nc(-c3ccc(Cl)cc3)cs2)n1
IC50 (HepG2 [13]): 3.06 µM
IC50 (MCF7 [16]): 4.42 µM

IC50 (DU-145 [17]): 3.7 µg/mL (≈ 6.88 µM)
Compound: Nn1c(Cc2ccc(Cl)c(Cl)c2)nn(CC(=O)NNC(=O)c2cc3cc(Cl)ccc3oc2=O)c1=O
IC50 [18]: 12.3 µg/mL (≈ 22.9 µM)

Compound: O=c1cc(O)c2ccccc2o1 [4-HYDROXYCOUMARINS]
IC50 (MDA-MB-231 [19]): ≥ 100 µM
IC50 (MDA-MB-231 [20]): ≥ 100 µM

Compound: Cc1c(NC(=O)CNCc2cccnc2)c(=O)oc2ccccc12
IC50 (A549 [11]): 69.1 µM
IC50 (MCF7 [12]): 69.1 µM

Compound: CC(c1cc2ccccc2oc1=O)(c1c[nH]c2ccc(I)cc12)c1c[nH]c2ccc(I)cc12
IC50 (MCF7 [21]): 28 µM
IC50 (HOS): 8.75 µM

IC50 (MCF7 [15]): 53.6 µM
Compound: Cc1cc(OCc2cn(C3C(=O)N(c4cccc([N+](=O)[O-])c4)C3/C=C\c3ccccc3)nn2)cc2oc(=O)cc(C)c12 (stereo unspecified)

Compound: COc1ccc(-c2csc(-n3nc(C)cc3-c3cc4cc(Cl)ccc4oc3=O)n2)cc1
IC50 (MCF7 [16]): 4.03 µM

IC50 (A549 [22]): 7.5 µg/mL (≈ 13.9 µM)
Compound: Nn1c(Cc2ccc(Cl)cc2)nn(CC(=O)NNC(=O)c2cc3cc(Cl)cc(Cl)c3oc2=O)c1=O

IC50 (MCF7 [23]): 28.7 µM
Compound: Cc1ccc2c(c1)C(=O)C(=O)N2CCOCCn1cc(COc2ccc3c(C)cc(=O)oc3c2)nn1

Compound: Cc1c(Cc2ccc(NC(=O)Nc3ccc(Cl)c(F)c3)nc2)c(=O)oc2cc(O)c(C(C)(C)C)cc12
IC50 (K562 [24]): 1.66 µM

Reference: ChEMBL document CHEMBL5357036, “Latest developments in coumarin-based anticancer agents: mechanism of action and structure-activity relationship studies” (RSC Med Chem, 2024)
